≈ marks a conversion by molar mass, not a printed value. Like-named read-outs stand apart in the source and are kept apart here.
Tests used:
Type in all cases: cell-based
E. coli J62-TEM-3 = assay: MIC determination, broth microdilution (CLSI); settings: Escherichia coli
E. coli ATCC25922 = assay: MIC determination, broth microdilution (CLSI); settings: Escherichia coli, ATCC25922, strain 1
A. baumannii ATCC15308 = assay: MIC determination, broth microdilution (CLSI); settings: Acinetobacter baumannii, ATCC15308, strain 9
K. pneumoniae 60 = assay: MIC determination, broth microdilution (CLSI); settings: Klebsiella pneumoniae, 60, strain 2
[1] = system: P. aeruginosa 2297 (AmpC wt); assay: MIC determination, broth microdilution (CLSI); settings: Pseudomonas aeruginosa, strain 7
P. aeruginosa PAO1 = assay: MIC determination, broth microdilution (CLSI); settings: Pseudomonas aeruginosa, PAO1, strain 6
strain 19 = assay: MIC determination, broth microdilution (CLSI)
strain 21 = assay: MIC determination, broth microdilution (CLSI)
E. coli J62 = assay: MIC determination, broth microdilution (CLSI); settings: Escherichia coli, J62, strain 17
strain 20 = assay: MIC determination, broth microdilution (CLSI)
E. cloacae 34654 = assay: MIC determination, broth microdilution (CLSI); settings: Enterobacter cloacae, 34654, strain 3
S. pneumoniae 113 = assay: MIC determination, broth microdilution (CLSI)
M. morganii 126/3048 = assay: MIC determination, broth microdilution (CLSI); settings: Morganella morganii, 126/3048, strain 5
C. freundii K21/3034 = assay: MIC determination, broth microdilution (CLSI); settings: Citrobacter freundii, K21/3034, strain 4
S. maltophilia ICB7569 = assay: MIC determination, broth microdilution (CLSI); settings: Stenotrophomonas maltophilia, ICB7569, strain 10
S. aureus 133 = assay: MIC determination, broth microdilution (CLSI)
B. fragilis 6688 = assay: MIC determination, broth microdilution (CLSI); settings: Bacteroides fragilis, 6688, strain 15; broth microdilution; read-out: MIC strain 15 (B. fragilis 6688)
Bacteria = assay: MIC determination in combination with β-lactamase inhibitors (constant 4 μg/mL)
C. perfringens DSM756 = assay: microbe, parasite or virus in culture; settings: Clostridium perfringens, DSM756, read-out: MIC strain 16 (C. perfringens DSM756), strain 16; broth microdilution
[2] = system: P. aeruginosa 2297-con (AmpC derepressed); assay: MIC determination, broth microdilution (CLSI); settings: Pseudomonas aeruginosa, read-out: strain 8 MIC, strain 8
H. influenzae ATCC 49247 = assay: MIC determination, broth microdilution (CLSI); settings: Haemophilus influenzae, ATCC49247, strain 12; broth microdilution; read-out: MIC strain 12 (H. influenzae ATCC 49247)
[3] = J62TEM3, read-out: MIC strain 18 (E. coli J62-TEM-3), strain 18, broth microdilution
[4] = Staphylococcus aureus, 133, strain 11, read-out: strain 11 MIC
[5] = broth microdilution, read-out: MIC strain 17 (E. coli J62)
[6] = Streptococcus pneumoniae, 113, strain 13, broth microdilution, read-out: MIC strain 13 (S. pneumoniae 113)
[7] = Staphylococcus aureus, 133, strain 14, broth microdilution, read-out: MIC strain 14 (S. aureus 133)

## C[C@H]1[C@H](NC(=O)/C(=N\OCCOc2ccc(C(=N)N)cc2F)c2csc(N)n2)C(=O)N1S(=O)(=O)O [Example 19, (2S,3S)-3-{[(2Z)-2-(2-Amino-1,3-thiazol-4-yl)-2-{[2-(4-carbamimidoyl-2-fluorophenoxy)ethoxy]imino}acetyl]amino}-2-methyl-4-oxoazetidine-1-sulfonic acid]
E. coli J62-TEM-3; J62TEM3, read-out: strain 18 MIC, strain 18
  MIC: 32 µg/mL (≈ 60.4 µM)
E. coli ATCC25922
  MIC: 0.5 µg/mL (≈ 0.944 µM)
A. baumannii ATCC15308
  MIC: 4 µg/mL (≈ 7.55 µM)
K. pneumoniae 60
  MIC: 0.125 µg/mL (≈ 0.236 µM)
[1]
  MIC: 16 µg/mL (≈ 30.2 µM)
P. aeruginosa PAO1
  MIC: 8 µg/mL (≈ 15.1 µM)
Strain 19
  MIC: 0.5 µg/mL (≈ 0.944 µM)
Strain 21
  MIC: 1 µg/mL (≈ 1.89 µM)
E. coli J62; read-out: strain 17 MIC
  MIC: 0.5 µg/mL (≈ 0.944 µM)
Strain 20
  MIC: 1 µg/mL (≈ 1.89 µM)
E. cloacae 34654
  MIC: 0.5 µg/mL (≈ 0.944 µM)
S. pneumoniae 113; Streptococcus pneumoniae, 113, strain 14, read-out: strain 14 MIC
  MIC: 16 µg/mL (≈ 30.2 µM)
M. morganii 126/3048
  MIC: 0.25 µg/mL (≈ 0.472 µM)
C. freundii K21/3034
  MIC: 0.5 µg/mL (≈ 0.944 µM)

## CC1(C)[C@H](NC(=O)/C(=N\O[C@@H](COc2ccc(C(=N)NC3CNCC3N)cc2)C(=O)O)c2csc(N)n2)C(=O)N1OS(=O)(=O)O (stereo partly drawn) [Example 106, (2S)-3-{4-[N-(4-Aminopyrrolidin-3-yl)carbamimidoyl]phenoxy}-2-({[(1Z)-1-(2-amino-1,3-thiazol-4-yl)-2-{[(3S)-2,2-dimethyl-4-oxo-1-(sulfooxy)azetidin-3-yl]amino}-2-oxoethylidene]amino}oxy)propanoic acid]
S. maltophilia ICB7569
  MIC: 4 µg/mL (≈ 5.97 µM)
E. coli J62-TEM-3; [3]
  MIC: 8 µg/mL (≈ 11.9 µM)
S. aureus 133; [4]
  MIC: ≤ 0.063 µg/mL
E. coli ATCC25922
  MIC: 0.125 µg/mL (≈ 0.187 µM)
A. baumannii ATCC15308
  MIC: 2 µg/mL (≈ 2.99 µM)
B. fragilis 6688
  MIC: 8 µg/mL (≈ 11.9 µM)
K. pneumoniae 60
  MIC: 0.125 µg/mL (≈ 0.187 µM)
[1]
  MIC: 2 µg/mL (≈ 2.99 µM)
Bacteria
  MIC strain 19 (E. coli J62-TEM-3 + 4 μg/mL clavulanic acid): 0.125 µg/mL
  MIC strain 20 (E. coli J62-TEM-3 + 4 μg/mL sulbactam): ≦0.063 mg/L
  MIC strain 21 (E. coli J62-TEM-3 + 4 μg/mL tazobactam): 0.125 µg/mL
P. aeruginosa PAO1
  MIC: 1 µg/mL (≈ 1.49 µM)
C. perfringens DSM756
  MIC: 1 µg/mL (≈ 1.49 µM)
E. coli J62; [5]
  MIC: 0.125 µg/mL (≈ 0.187 µM)
[2]
  MIC: 1 µg/mL (≈ 1.49 µM)
H. influenzae ATCC 49247
  MIC: ≤ 0.063 µg/mL
E. cloacae 34654
  MIC: 0.125 µg/mL (≈ 0.187 µM)
S. pneumoniae 113; [6]
  MIC: 0.5 µg/mL (≈ 0.747 µM)
M. morganii 126/3048
  MIC: ≤ 0.063 µg/mL
C. freundii K21/3034
  MIC: 0.125 µg/mL (≈ 0.187 µM)

## CN(C)CCNC(=N)c1ccc(OCCO/N=C(\C(=O)N[C@@H]2C(=O)N(OS(=O)(=O)O)C2(C)C)c2csc(N)n2)cc1 [Example 40, (2Z)-2-(2-Amino-1,3-thiazol-4-yl)-2-{[2-(4-{N-[2-(dimethylamino)ethyl]carbamimidoyl}phenoxy)ethoxy]imino}-N-[(3S)-2,2-dimethyl-4-oxo-1-(sulfooxy)azetidin-3-yl]ethanamide]
S. maltophilia ICB7569
  MIC: 16 µg/mL (≈ 26.1 µM)
E. coli J62-TEM-3; [3]
  MIC: 8 µg/mL (≈ 13.1 µM)
S. aureus 133; [4]
  MIC: ≤ 0.063 µg/mL
E. coli ATCC25922
  MIC: 0.125 µg/mL (≈ 0.204 µM)
A. baumannii ATCC15308
  MIC: 2 µg/mL (≈ 3.26 µM)
B. fragilis 6688
  MIC: 4 µg/mL (≈ 6.53 µM)
K. pneumoniae 60
  MIC: 0.25 µg/mL (≈ 0.408 µM)
[1]
  MIC: 8 µg/mL (≈ 13.1 µM)
Bacteria
  MIC strain 19 (E. coli J62-TEM-3 + 4 μg/mL clavulanic acid): 0.125 µg/mL
  MIC strain 20 (E. coli J62-TEM-3 + 4 μg/mL sulbactam): 0.25 µg/mL
  MIC strain 21 (E. coli J62-TEM-3 + 4 μg/mL tazobactam): 0.25 µg/mL
P. aeruginosa PAO1
  MIC: 4 µg/mL (≈ 6.53 µM)
C. perfringens DSM756
  MIC: 2 µg/mL (≈ 3.26 µM)
E. coli J62; [5]
  MIC: 0.25 µg/mL (≈ 0.408 µM)
[2]
  MIC: 4 µg/mL (≈ 6.53 µM)
H. influenzae ATCC 49247
  MIC: ≤ 0.063 µg/mL
E. cloacae 34654
  MIC: 0.5 µg/mL (≈ 0.816 µM)
S. pneumoniae 113; [6]
  MIC: ≤ 0.063 µg/mL
M. morganii 126/3048
  MIC: 0.5 µg/mL (≈ 0.816 µM)
C. freundii K21/3034
  MIC: 0.125 µg/mL (≈ 0.204 µM)

## CC1(C)[C@H](NC(=O)/C(=N\OCCOc2ccc(C(=N)NCC(=O)O)cc2)c2csc(N)n2)C(=O)N1OS(=O)(=O)O [Example 73, N-[{4-[2-({[(1Z)-1-(2-Amino-1,3-thiazol-4-yl)-2-{[(3S)-2,2-dimethyl-4-oxo-1-(sulfo-oxy)azetidin-3-yl]amino}-2-oxoethylidene]amino}oxy)ethoxy]phenyl}(imino)methyl]glycine]
S. maltophilia ICB7569
  MIC: 32 µg/mL (≈ 53.4 µM)
E. coli J62-TEM-3; [3]
  MIC: 32 µg/mL (≈ 53.4 µM)
S. aureus 133; [4]
  MIC: ≤ 0.063 µg/mL
S. aureus 133; [7]
  MIC: 32 µg/mL (≈ 53.4 µM)
E. coli ATCC25922
  MIC: 0.5 µg/mL (≈ 0.834 µM)
A. baumannii ATCC15308
  MIC: 16 µg/mL (≈ 26.7 µM)
B. fragilis 6688
  MIC: 8 µg/mL (≈ 13.3 µM)
K. pneumoniae 60
  MIC: 0.5 µg/mL (≈ 0.834 µM)
[1]
  MIC: 32 µg/mL (≈ 53.4 µM)
Bacteria
  MIC strain 19 (E. coli J62-TEM-3 + 4 μg/mL clavulanic acid): 0.5 µg/mL
  MIC strain 20 (E. coli J62-TEM-3 + 4 μg/mL sulbactam): 0.5 µg/mL
  MIC strain 21 (E. coli J62-TEM-3 + 4 μg/mL tazobactam): 1 µg/mL
P. aeruginosa PAO1
  MIC: 16 µg/mL (≈ 26.7 µM)
C. perfringens DSM756
  MIC: 4 µg/mL (≈ 6.67 µM)
E. coli J62; [5]
  MIC: 1 µg/mL (≈ 1.67 µM)
[2]
  MIC: 32 µg/mL (≈ 53.4 µM)
H. influenzae ATCC 49247
  MIC: 0.25 µg/mL (≈ 0.417 µM)
E. cloacae 34654
  MIC: 0.5 µg/mL (≈ 0.834 µM)
S. pneumoniae 113; [6]
  MIC: ≤ 0.063 µg/mL
M. morganii 126/3048
  MIC: 0.5 µg/mL (≈ 0.834 µM)
C. freundii K21/3034
  MIC: 0.5 µg/mL (≈ 0.834 µM)

## CC1(C)[C@H](NC(=O)/C(=N\OCCOc2ccc(C(=N)NCCNC(=N)N)cc2)c2csc(N)n2)C(=O)N1OS(=O)(=O)O [Example 78, (2Z)-2-(2-Amino-1,3-thiazol-4-yl)-2-[(2-{4-[N-(2-carbamimidamidoethyl)carbamimidoyl]phenoxy}ethoxy)imino]-N-[(3S)-2,2-dimethyl-4-oxo-1-(sulfooxy)azetidin-3-yl]ethanamide]
S. maltophilia ICB7569
  MIC: 8 µg/mL (≈ 12.8 µM)
E. coli J62-TEM-3; [3]
  MIC: 4 µg/mL (≈ 6.38 µM)
S. aureus 133; [4]
  MIC: ≤ 0.063 µg/mL
S. aureus 133; [7]
  MIC: 1 µg/mL (≈ 1.6 µM)
E. coli ATCC25922
  MIC: 0.25 µg/mL (≈ 0.399 µM)
A. baumannii ATCC15308
  MIC: 0.25 µg/mL (≈ 0.399 µM)
B. fragilis 6688
  MIC: 4 µg/mL (≈ 6.38 µM)
K. pneumoniae 60
  MIC: 0.25 µg/mL (≈ 0.399 µM)
[1]
  MIC: 4 µg/mL (≈ 6.38 µM)
Bacteria
  MIC strain 19 (E. coli J62-TEM-3 + 4 μg/mL clavulanic acid): 0.25 µg/mL
  MIC strain 20 (E. coli J62-TEM-3 + 4 μg/mL sulbactam): 0.5 µg/mL
  MIC strain 21 (E. coli J62-TEM-3 + 4 μg/mL tazobactam): 0.5 µg/mL
P. aeruginosa PAO1
  MIC: 4 µg/mL (≈ 6.38 µM)
C. perfringens DSM756
  MIC: 2 µg/mL (≈ 3.19 µM)
E. coli J62; [5]
  MIC: 0.5 µg/mL (≈ 0.798 µM)
[2]
  MIC: 2 µg/mL (≈ 3.19 µM)
H. influenzae ATCC 49247
  MIC: ≤ 0.063 µg/mL
E. cloacae 34654
  MIC: 0.5 µg/mL (≈ 0.798 µM)
S. pneumoniae 113; [6]
  MIC: ≤ 0.063 µg/mL
M. morganii 126/3048
  MIC: 0.5 µg/mL (≈ 0.798 µM)
C. freundii K21/3034
  MIC: 0.25 µg/mL (≈ 0.399 µM)

Reference: US9556165B2 (priority 2012, dated 2017)
